Reference: PMC12548168, “Pitavastatin is a novel Mcl-1 inhibitor that overcomes paclitaxel resistance in triple-negative breast cancer” (Experimental Hematology & Oncology, 2025)

Key:
[1] = biological target: T1, Mcl-1 (myeloid cell leukemia 1) (Homo sapiens, UniProt Q07820); assay: surface plasmon resonance (SPR), reference Mcl-1 inhibitor (Supplementary Fig. S2); type: binding
T1 construct: gene MCL1

[2] = biological target: T1, Mcl-1 (myeloid cell leukemia 1); assay: surface plasmon resonance (SPR); type: binding

T1 sequence (Q07820 whole entry): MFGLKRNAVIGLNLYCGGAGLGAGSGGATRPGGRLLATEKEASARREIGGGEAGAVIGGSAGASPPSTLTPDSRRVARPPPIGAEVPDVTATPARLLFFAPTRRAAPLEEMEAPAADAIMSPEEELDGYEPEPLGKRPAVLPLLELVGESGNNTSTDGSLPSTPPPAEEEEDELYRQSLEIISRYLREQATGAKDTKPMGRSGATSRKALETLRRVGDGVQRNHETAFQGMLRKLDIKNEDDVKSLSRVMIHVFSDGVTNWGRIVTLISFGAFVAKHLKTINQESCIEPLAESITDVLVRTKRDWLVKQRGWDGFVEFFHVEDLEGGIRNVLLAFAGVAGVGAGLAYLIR

| Kd [2] | SMILES | Kd [1] |
| --- | --- | --- |
|  | Cc1cc2c(C(C)C)c(O)c(O)c(C=O)c2c(O)c1-c1c(C)cc2c(C(C)C)c(O)c(O)c(C=O)c2c1O [AT101] | 9.48 µM |
| 3.91 µM | O=C(O)C[C@H](O)C[C@H](O)/C=C/c1c(C2CC2)nc2ccccc2c1-c1ccc(F)cc1 [PITA, Pitavastatin] |  |
